Test results as given in patent publication US20250109127A1, “METHODS OF USE OF PHENOXYPROPYLAMINE COMPOUNDS TO TREAT DEPRESSION” (Minerva Neurosciences, Inc., priority 2013, published 2025).
Entries after “also recorded” stand apart in the source; their conditions may differ.

Legend:
[1] = Pharmacokinetic study, plasma concentration on day 1 and day 14; type: in vivo; details: day 1 and day 14 after dosing with SON-117
Description: were examined in pharmacokinetic studies.
FIG. 34 illustrates the plasma concentration of SON-117 as a function of time on day 1 after dosing with SON-117. FIG. 35 illustrates the plasma concentration of SON-117 as a function of time on day 14 after dosing with SON˜117.
FIG. 36 illustrates the plasma concentration of the M1 metabolite of SON-117 as a function of time on day 1 after dosing with SON-117. FIG. 37 illustrates the plasma concentration of the M1 metabolite of SON-117 as a function of time on day 14 after dosing with SON-117.

[2] = test system: animals exposed to chronic mild stress; assay: Chronic mild stress (CMS) model, consumption of 1% sucrose solution; type: in vivo, rat
Protocol: Male Wistar rats (Charles River, Germany) were brought into the laboratory one month before the start of the experiment. Except as described below, the animals were singly housed with food and water freely available, and were maintained on a 12-h light/dark cycle, in a constant temperature (22±2° C.) and humidity (50±5%) conditions.
After a period of 2 weeks of adaptation to laboratory and housing conditions, the animals were first trained to consume a 1% sucrose solution; training consisted of nine 1 h baseline tests in which sucrose was presented, in the home cage, following 14 h food and water deprivation; the sucrose intake was measured by weighing pre-weighed bottles containing the sucrose solution, at the end of the test. Subsequently, the sucrose consumption was monitored, under similar conditions, at weekly intervals throughout the whole experiment.
On the basis of their sucrose intakes in the final baseline test, the animals were divided into two matched groups. One group of animals was subjected to the chronic mild stress procedure for a period of 8 consecutive weeks. Each week of stress regime consisted of: two periods of food or water deprivation, two periods of 45 degree cage tilt, two periods of intermittent illumination (lights on and off every 2 h), two periods of soiled cage (250 ml water in sawdust bedding), one period of paired housing, two periods of low intensity stroboscopic illumination (150 flashes/min), and three periods of no stress. All stressors were 10-14 h of duration and were applied individually and continuously, day and night. Control animals were housed in separate rooms and had no contact with the stressed animals. They were deprived of food and water for the 14 h preceding each sucrose test, but otherwise food and water were freely available in the home cage.
On the basis of their sucrose intakes following initial 2 weeks of stress, both the stressed and the control groups were each divided further into matched subgroups (n=8), and for subsequent five weeks they received once daily intraperitoneal injections of vehicle (0.5% hydroxypropylmethylcellulose, 1 ml/kg), SON-117 (0.001, 0.01, 0.1 and 1 mg/kg) or imipramine (10 mg/kg) as the reference treatment. The drugs were administered at approx. 10:00 AM and the weekly sucrose tests were carried out 24 h following the last drug injections. After five weeks all treatments were terminated and one additional sucrose test was carried out after one week of withdrawal. Stress was continued throughout the period of treatment and withdrawal.
(§1) After completion of the administration and withdrawal period, all control and stressed animals were placed in an open field (100 cm in diameter, 35 cm high) and allowed to explore two identical objects (cylinder-shaped object with walls painted white, 7 cm in diameter, 11 cm high) for the time required to complete 15 s of exploration of either object. For the retention trial conducted one hour later, one of the objects presented previously was replaced with a novel object (prism-shaped object with walls painted black, 5 cm wide, 14 cm high). Rats were returned to the open field for 5 min and the duration of exploration (i.e. sitting in close proximity to the objects, sniffing or touching them) of each object was measured separately by a trained observer. The data were calculated according to the following formula: [time of novel object exploration divided by time of novel plus familiar object exploration multiplied by 100]. The CMS and NOR data were analyzed by multiple analyses of variance with three between-subjects factors (stress/control, drug treatments and intakes in successive sucrose tests). The Fisher's LSD test was used for the post-hoc comparisons of means.

[3] = test system: animals exposed to chronic mild stress; assay: Novel object recognition test after CMS and treatment withdrawal; type: in vivo, rat; details: imipramine 10 mg/kg IP, one week after withdrawal
Description: as §1

[4] = test system: dopamine release in the rat prefrontal cortex; assay: Microdialysis: dopamine release in prefrontal cortex after I.P. administration; type: in vivo; details: 3 mg/kg IP, n = 8
Protocol: The aim of the study was to evaluate, using microdialysis, the effects of an intraperitoneal (I.P.) administration in rats of three different doses of SON-117 on dopamine and its metabolites, serotonin and its metabolite (5-HIAA), and norepinephrine levels in prefrontal cortex.
Thirty-two adult male Wistar rats were used for the whole study (4 groups of eight animals planned for the study, Table 1).
Surgery was performed on rats weighing about 300 g at the beginning of the experiments. Rats were anaesthetized with Ketamine (50 mg/kg) & Xylazine (15 mg/kg) by intramuscular administration. The animals were placed in a stereotaxic apparatus in the flat-skull position at a constant setting of −3.3 mm between ear bars and the incisor bar. The animals were treated with a local anesthesic (xylocaine 1%, Astra Zeneca) and an analgesic (Temgesic, from Schering Plough, 0.05 mg/kg, s.c.). A rostrocaudal midline incision was made with a lancet to expose the dorsal skull surface. The “stereotaxic zero” was defined by the Bregma in accordance with Paxinos and Watson's atlas (1986). A hole was drilled in the skull with a drill and the meninges were pierced with a sterile needle to implant a CMA12 guide cannula which later received the dialysis probe.
Coordinates used for implanting guide cannula in prefrontal cortex from Bregma were anteroposterior 3.7 mm, mediolateral 0.8 mm, and dorsoventral −2 mm (top of the probe was at −5 mm). The guide cannula was fixed to the skull with two stainless steel screws (1.88 mm outside diameter) anchored. An application of dental cement was added. A plastic collar allowed each animal to be tethered to a Swivel assembly of the CMA 120 awake animal system. Following surgery, rats were kept in individual cages and allowed to recover for a minimum of 3-5 days before the experimentation. The rats were handled and put in plastic bowl for 10 min at least every day to habituate the animals to their new environment for the dialysis. An I.P. administration with saline was also performed every day.
Dialysis probes (CMA12/3 mm, membrane, 20 kD cut-off, Carnegie Medicine, Stockholm, Sweden), were carefully washed before inserting into the guide cannula. The wash was performed with the artificial cerebrospinal fluid (aCSF) medium (NaCl 147 mM, KCl 2.7 mM, CaCl2 1.2 mM, MgCl2 0.85 mM) at room temperature. The dialysis system was then equilibrated at 20° C. at a perfusion rate of 1 μl/min with a Carnegie pump (CMA100). All catheters (FEP tubing, internal volume of 1.2 μl/10 cm, and tubing adaptors) used for microdialysis were treated in the same conditions.
The probes duly prepared were inserted into the guide cannula and the CMA120 Swivel assembly secured to the animal using a plastic collar. Flow through the dialysis probe with aCSF was maintained at a rate of 1 μl/min during the whole experimentation. The first four fractions (corresponding to 2 hours) were discarded to avoid the effects of parenchymal disturbance and to ensure that an approximate steady-state level was reached. Fractions were then collected over a period of 8.5 h during which time the animals remained quiet. The dialysates were automatically collected with an autosampler (microfraction collector CMA 140, Carnegie Medicin) and stored at −80° C. until analysis. […] Perfusion was then maintained for 7 hours with aCSF. The dialysates (30 μl) were collected into 300 μl vials, transferred into dry ice and then kept frozen (−80° C.) until analysis. Frozen samples were shipped to a partner for analysis. At the end of the microdialysis study, a PBS with colored ink was perfused through the probe in order to visualize the dialyzed area.
Catecholamine assay: Concentrations of dopamine, DOPAC, HVA, 5-HIAA, 5-HT, and norepinephrin were determined for each sample by HPLC coupled with electrochemical detection.

[5] = test system: sleep EEG parameters; assay: Polysomnography / sleep EEG study; type: in vivo, human; details: escitalopram 20 mg
Protocol: In this study, certain pharmacodynamic sleep parameters predictive of antidepressant activity were monitored and measured. […] Three doses of SON-117 were tested (1 mg, 3 mg, 7.5 mg). […] In an embodiment, SON-117 affected sleep. In an embodiment, SON-117 affected REM sleep.
[…] subjects were tested in a sleep study, where 23 subjects were dosed with SON-117 in amounts of 1 mg up to 7.5 mg; 12 were given a placebo; and 8 were given escitalopram at a dose of 20 mg. Sleep was recorded in individual sound-attenuated and comfortably furnished bedrooms. During bedtime hours subjects were recumbent and the lights are turned off. The polysomnographic montage consisted of 4 EEG channels (C3A2, O1A2, C4A1, and O2A1), bilateral electro-oculograms, and 2 submental electromyograms. The different sleep parameters were derived with the Hypnos software from the visual scoring of the recordings at 30 sec epochs according to Rechtschaffen and Kales (1968) rules. Sleep continuity parameters comprise both sleep initiation and sleep maintenance variables. Sleep architecture parameters, which include REM sleep parameters, comprise stages distribution variables documenting duration and proportion of the different sleep stages and sleep profile variables that provide an outline on the time course of the different sleep stages during the recording period. All night sleep EEG spectral analysis was carried out on the C3-A2 derivation by means a fast Fourrier transform algorithm. Epoch length was 2 seconds at a sampling rate of 256 Hz and truncating error was reduced by applying a Hanning window. Sleep visual scores of each 30-second epoch was synchronised with power density values in order to allow the analysis of power density within in specific period of time such as REM and non REM sleep.

Q: For `OCc1nnc(-c2cc3c(OC[C@@H](O)CN4CCC(c5ccc(Cl)c(Cl)c5)CC4)cccc3o2)o1` [M1], which “AUC, dependence on dose” value [1] is on record?
A: The value was “dose-proportional increase”.

Q: And the “Cmax, dependence on dose” value [1]?
A: The value was “dose-proportional increase”.

Q: Which “treatment time until increase in sucrose intake in stressed animals reached statistical significance vs Week 0” value ([2]; imipramine 10 mg/kg IP) does the source give for `CN(C)CCCN1c2ccccc2CCc2ccccc21` [imipramine, reference compound] here?
A: The value was “four”.

Q: And the “effect on sucrose intake one week after cessation of treatment” value ([2]; imipramine 10 mg/kg IP, stressed animals)?
A: Its value is “maintained”.

Q: And the “sucrose intake in control animals, compared to vehicle” value ([2]; once daily IP for five weeks, imipramine 10 mg/kg, SON-117 all doses (0.001, 0.01, 0.1 and 1 mg/kg))?
A: The value was “no significant effect”.

Q: And the “sucrose consumption in stressed animals, compared to vehicle” value ([2]; once daily IP for five weeks, imipramine 10 mg/kg, SON-117 all four doses (0.001-1 mg/kg))?
A: Its value is “gradually increased; also recorded: fully reversed”.

Q: What about the “recognition index in control animals” value [3] of the same compound?
A: The value was “decreased”.

Q: And the “effect against the CMS-induced deficit in recognition index” value ([3]; stressed animals)?
A: The value was “ineffective”.

Q: Which “Dopamine release, MEAN” value ([4]; T0-T30 min) does the source give for `Cc1nnc(-c2cc3c(OC[C@@H](O)CN4CCC(c5ccc(Cl)c(Cl)c5)CC4)cccc3o2)o1.Cl` [SON117] here?
A: The value was 129.47 % of respective basal.

Q: And the “Dopamine release, MEAN” value ([4]; T30-T1 h)?
A: Its value is 110.54 % of respective basal.

Q: And the “Dopamine release, MEAN” value ([4]; T1 h 30-T2 h)?
A: Its value is 134.25 % of respective basal.

Q: And the “Dopamine release, MEAN” value ([4]; T1 h-T1 h 30)?
A: The value was 169.31 % of respective basal.

Q: And the “Dopamine release, MEAN” value ([4]; T2 h 30-T3 h)?
A: Its value is 115.17 % of respective basal.

Q: What about the “Dopamine release, MEAN” value ([4]; T2 h-T2 h 30) of the same compound?
A: Its value is 106.18 % of respective basal.

Q: And the “Dopamine release, MEAN” value ([4]; T3 h 30-T4 h)?
A: The value was 113.02 % of respective basal.

Q: What about the “Dopamine release, MEAN” value ([4]; T3 h-T3 h 30) of the same compound?
A: The value was 117.50 % of respective basal.

Q: And the “Dopamine release, MEAN” value ([4]; T4 h 30-T5 h)?
A: Its value is 111.42 % of respective basal.

Q: And the “Dopamine release, MEAN” value ([4]; T4 h-T4 h 30)?
A: The value was 126.77 % of respective basal.

Q: What about the “Dopamine release, MEAN” value ([4]; T5 h 30-T6 h) of the same compound?
A: Its value is 148.15 % of respective basal.

Q: And the “Dopamine release, MEAN” value ([4]; T5 h-T5 h 30)?
A: Its value is 123.35 % of respective basal.

Q: What about the “Dopamine release, MEAN” value ([4]; T6 h 30-T7 h) of the same compound?
A: The value was 167.43 % of respective basal.

Q: What about the “Dopamine release, MEAN” value ([4]; T6 h-T6 h 30) of the same compound?
A: Its value is 131.63 % of respective basal.

Q: And the “Dopamine release, MEAN” value ([4]; T-30 min-T0 (before administration))?
A: Its value is 96.15 % of respective basal.

Q: And the “Dopamine release, MEAN” value ([4]; T-1 h 30-T-1 h (before administration))?
A: Its value is 104.41 % of respective basal.

Q: What about the “Dopamine release, MEAN” value ([4]; T-1 h-T-30 min (before administration)) of the same compound?
A: The value was 99.29 % of respective basal.

Q: With `CN(C)CCC[C@@]1(c2ccc(F)cc2)OCc2cc(C#N)ccc21` [escitalopram, reference compound] as the compound, how does the “pharmacodynamic sleep parameters, positive comparator” value [5] read?
A: The value was “behaved as expected”.
